Data set [1] has as its system OVCAR3CIS cells. Put plainly: RNA-seq after siRNA-mediated CASC10 knockdown. Type of data set: cell-based. As to the method:
The RNA sequencing library was prepared by first extracting, total RNA using the GenElute Mammalian Total RNA Miniprep Kit (Sigma). RNA sample integrity was evaluated and RNAs with a RIN >7 were used.
RNA fragmentation was carried out for 10 minutes, followed by first-and second-strand cDNA synthesis and adenylation using the TruSeq Stranded Total RNA with Illumina Ribo-Zero Plus rRNA Depletion (Illumina, San Diego, CA). The PCR products were run on a flow cell running a 50 base paired-end (2X50) recipe. The differential expression analysis was carried out using the DESeq2 (version 1.28.1) package (R version 4.0.1). As the count data was obtained in two batches, a batch correction term was introduced in the DESeq2 model using ComBat Seq to have better statistical power and control of false positives. The Ensembl IDs were converted to gene symbols and names using the org.Hs.eg.db package (version 3.11.4). […]

Data set [2] has as its system OVCAR3CIS. Put plainly: Cell cycle progression by flow cytometry. The following applies: 48 hours post-transfection. The data set is classed as cell-based. As to the method: (§1) To assess cell cycle progression, OVCAR3CIS (3.0×10^4 cells/mL) or SKOV3ip1CIS (3.5×10^4 cells/mL) were seeded into 10 cm Petri dishes and transfected with NC-siRNA or CASC10-siRNA (2). Forty-eight hours later, attached cells were collected, washed in ice-cold PBS, fixed with 70% cold ethanol, and stored at 4° C. Cells were then washed with ice-cold PBS, resuspended in propidium iodide (PI)/RNase Staining Buffer, incubated in the dark for 15 minutes at room temperature, and then analyzed by flow cytometry in BD C6 Accuri (CA, USA). Accuri's software was used to determine the percentage of cells in each cell cycle phase.
(In general: Flow cytometry measures light scatter and fluorescence of single cells or particles in a stream.)

The subject of data set [3] is SKOV3ip1 cells. Put plainly: Cell viability, Alamar blue, siRNA. The data set is classed as cell-based, human. As to conditions: SKOV3ip1, any siRNA concentration tested, vs NC-siRNA. As to the method: (§2) OVCAR3CIS cells (3.0×10^4 cells/mL) or SKOV3ip1CIS (3.0×10^4 cells/mL) were seeded into 12-well plates. Twenty-four hours later, cells were transfected with 100 nM (final concentration) of each siRNA. The next day, 400 cells (OVCAR3CIS) or 1,000 cells (SKOV3ip1CIS) were seeded into 6-well plates and incubated for seven days, fixed and stained with 0.5% crystal violet in methanol. Colonies of at least 50 cells were counted using a light microscope (CKX41: Olympus, Center Valley, PA, USA) with a total magnification of 40x. For cell viability assays, OVCAR3 and OVCAR3CIS (3.0×10^4 cells/mL) or SKOV3ip1and SKOV3ip1CIS (3.5×10^4 cells/mL) were seeded into 96-well plates, and 24 hours later, siRNA transfection was performed as described above. The next day, the transfection mix was replaced with cisplatin (CIS) (2.5 uM final concentration dissolved in regular cell culture media) and after forty-eight hours, the medium was removed, and Alamar blue dye (Invitrogen, Thermo Fisher Scientific, Eugene, OR, USA) was added following the manufacturer's instructions. Optical density (OD) was measured, and percentages of cell viability were calculated after blank OD subtraction. Untreated cells were assessed as 100% cell viability.

Data set [4] relates to CASC10. Put plainly: RT-qPCR of CASC10 expression after siRNA transfection in SKOV3ip1 cells. As to conditions: SKOV3ip1 cells as printed. The data set is classed as cell-based, human. As to the method: (§3) SiRNA ON-TARGET plus SMARTpool (a mixture of 4 siRNA as a single tube) and a negative control siRNA (NC-siRNA) (Sigma-Aldrich) were used for transfection studies. CASC10, was targeted by using two siRNAs targeting different regions of the CASC10 RNA (e.g., CASC10-siRNA (1) and CASC10-siRNA (2)). OVCAR3CIS or SKOV3ip1CIS cells were seeded into 12-well plates at 3.0×10^4 cells/mL. The next day, siRNAs were mixed with HiPerfect transfection reagent (Qiagen, Valencia, CA) at a 1:2 ratio (SIRNA: HiPerfect) in serum and antibiotic-free Opti-MEM medium (Gibco) and added to the cells. After twenty-four hours the media was replaced by regular culture media, and cells were cultured and used for further experiments. To assess siRNA transfection efficiency, cells were collected 24 hours after siRNA transfection.
A custom-made 384-well plate containing pre-designed forward and reverse primers was purchased from Bio-Rad (CA, USA). Total RNA was isolated from OVCAR3 and OVCAR3CIS cells using the GenElute Mammalian Total RNA Mini Kit (Millipore-Sigma, MO, USA) following the manufacturer's instructions. […] Fold-changes and cycle threshold (Ct) values were calculated by the instrument's internal software relative to OVCAR3 cells and normalized to B-actin along with controls for gDNA, PCR reaction, RT reaction, and RNA quality.
In general terms: Quantitative PCR measures a nucleic acid by following its amplification.

In data set [5] the test system is SKOV3ip1CIS cells. Description: Colony formation assay after siRNA transfection. As to conditions: SKOV3ip1CIS (FIG. 8B). Type of data set: cell-based, human. As to the method: as §3
OVCAR3CIS cells (3.0×10^4 cells/mL) or SKOV3ip1CIS (3.0×10^4 cells/mL) were seeded into 12-well plates. Twenty-four hours later, cells were transfected with 100 nM (final concentration) of each siRNA. […] Colonies of at least 50 cells were counted using a light microscope (CKX41: Olympus, Center Valley, PA, USA) with a total magnification of 40x. […] Optical density (OD) was measured, and percentages of cell viability were calculated after blank OD subtraction. Untreated cells were assessed as 100% cell viability.

In data set [6] the test system is OVCAR3 cells. Put plainly: Cell viability, Alamar blue, siRNA. The data set is classed as cell-based. As to conditions: OVCAR3, any siRNA concentration tested, vs NC-siRNA. On the procedure: as §2
In data set [7] the test system is OVCAR3CIS cells. Description: Cell viability, Alamar blue, siRNA alone or with cisplatin. Type of data set: cell-based. The following applies: OVCAR3CIS, vs NC-siRNA. As to the method: as §2, with “Twenty-four hours later, cells were transfected with 100 nM (final concentration) of each siRNA.” left out
The subject of data set [8] is SKOV3IP1CIS. Put plainly: Cell cycle progression by flow cytometry. Type of data set: cell-based, human. The following applies: 48 hours post-transfection. As to the method: as §1

As for “CASC10-siRNA (2): siRNA targeting CASC10 RNA, SEQ ID NO 3 and 4: 5′ GACUCUUGGAUCCAAGUUU(dT)(dT) 3′ / 5′ AAACUUGGAUCCAAGAGUC(dT)(dT) 3′ (chain 1 GACUCUUGGAUCCAAGUUUNN; chain 2 AAACUUGGAUCCAAGAGUCNN; 3' dTdT overhangs, chemistry not fully specified)”, the differentially expressed genes in data set [1] (log2 fold change >1.2 or <−1.2, p-value ≤0.01, vs NC-siRNA) is recorded as 32. Besides, in data set [1] (padj <0.01), the “differentially abundant transcripts exclusive of CASC10-siRNA (2) compared with NC-siRNA” value is given as 1,400. Moreover, the cell cycle progression entry in data set [2] and in data set [8] was “cell cycle arrest in the G0/G1 to S phase” in each case. The cell viability entry in data set [3] and in data set [6] was “did not significantly reduce cell viability” throughout. For the same substance, the “decrease of CASC10 relative expression” value in data set [4] was 75%. Further, the “reduction in the number of colonies” value in data set [5] is reported as 86%. The “reduction of cell viability” value in data set [7] (50 nM siRNA) is reported as 15%; in data set [7] (100 nM siRNA) it was 30%. In addition, the “cell viability (reduced to)” value in data set [7] (siRNA combined with CIS 2.5 μM) was 56%.
